Experimental findings from patent publication US20260200943A1, “COMPOUNDS FOR TREATING CANCER” (Genesis Therapeutics, Inc., priority 2022, published 2026) are described below.

Holding throughout (format): biochemical
The target of one assay is T1, CDK4/CyclinD1 (Homo sapiens, UniProt P11802).
T1 construct: Wild-type, full length CDK4 in complex with wildtype, CyclinD1: ThermoFisher Cat #PR8064A; purchased ThermoFisher PR8064A
Nature of the assay: CDK4/CyclinD1 ChEF Assay (AQT, Table C). Conditions: read-out: CDK4/CCND1 AQT Ki: Average Ki. On the procedure: (§1) 16 nL of 1000× compound in 100% DMSO is added to a 384-well low volume, black assay plate. 12 μL of 1.3×CDK4/CyclinD1 (Wild-type, full length CDK4 in complex with wildtype, CyclinD1: ThermoFisher Cat #PR8064A) diluted in assay buffer (54 mM Hepes, 0.012% Brij-35, 10 mM MgCl2, 0.55 mM EGTA, 1% Glycerol, 0.02% BSA, and 1.2 mM DTT) is added to the plates on top of the compound and pre-incubated for 30 minutes at room temperature. Following the incubation, 4 uL of 4×Sox-chromophore (CSox) labeled peptide substrate (AQT0258, AssayQuant) & ATP diluted in assay buffer is added to the plate to initiate the reaction. The assay is incubated at room temperature for 150 min after initiation. The CSox peptide substrate is phosphorylated by CDK4/D1 upon ATP hydrolysis.
The fluorescent intensity measurement of the assay plate is read on a microplate reader once the assay is initiated and again at the completion of the assay. Phosphorylation of the CSox-based peptide substrate sensor results in an immediate increase in fluorescence. These raw fluorescence intensity values are normalized to calculate percent inhibition, which are fit to a four-parameter logistic curve and IC50 values are calculated. IC50 values are converted to Ki using substrate, KM^ap values, and the Cheng-Prusoff equation.

The target in another assay is CDK9/CyclinT1 (Homo sapiens, UniProt P50750). Nature of the assay: CDK9/CyclinT1 ChEF Assay (AQT, Table C). Also noted: Wild-type, full length CDK9 in complex with wildtype, CyclinT1 (1-259): Biortus Cat #BP480/792/691; purchased Biortus BP480/792/691. Conditions: 10XKm. On the procedure: 16 nL of 1000× compound in 100% DMSO is added to a 384-well low volume, black assay plate. 12 μL of 1.3×CDK9/CyclinT1 (Wild-type, full length CDK9 in complex with wildtype, CyclinT1 (1-259): Biortus Cat #BP480/792/691) diluted in assay buffer (54 mM Hepes, 0.012% Brij-35, 10 mM MgCl2, 0.55 mM EGTA, 1% Glycerol, 0.02% BSA, and 1.2 mM DTT) is added to the plates on top of the compound and pre-incubated for 30 minutes at room temperature. Following the incubation, 4 μL of 4×Sox-chromophore (CSox) labeled peptide substrate (AQT0449, AssayQuant) & ATP diluted in assay buffer is added to the plate to initiate the reaction. The assay is incubated at room temperature for 180 min after initiation. The CSox peptide substrate is phosphorylated by CDK9/T1 upon ATP hydrolysis.
Sequence of CDK9/CyclinT1 (P50750 whole entry): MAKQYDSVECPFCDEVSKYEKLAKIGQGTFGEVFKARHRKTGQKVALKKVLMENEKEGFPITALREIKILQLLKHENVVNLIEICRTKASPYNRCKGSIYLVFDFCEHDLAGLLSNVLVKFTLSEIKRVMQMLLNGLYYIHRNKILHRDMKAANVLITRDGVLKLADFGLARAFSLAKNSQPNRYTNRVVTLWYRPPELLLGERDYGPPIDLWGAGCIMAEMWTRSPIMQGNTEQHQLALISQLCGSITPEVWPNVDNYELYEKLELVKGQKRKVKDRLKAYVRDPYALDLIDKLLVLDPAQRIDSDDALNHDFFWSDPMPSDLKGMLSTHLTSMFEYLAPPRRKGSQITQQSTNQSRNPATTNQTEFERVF
Sequence of CDK9/CyclinT1 (O60563 1-259 partner limits assumed): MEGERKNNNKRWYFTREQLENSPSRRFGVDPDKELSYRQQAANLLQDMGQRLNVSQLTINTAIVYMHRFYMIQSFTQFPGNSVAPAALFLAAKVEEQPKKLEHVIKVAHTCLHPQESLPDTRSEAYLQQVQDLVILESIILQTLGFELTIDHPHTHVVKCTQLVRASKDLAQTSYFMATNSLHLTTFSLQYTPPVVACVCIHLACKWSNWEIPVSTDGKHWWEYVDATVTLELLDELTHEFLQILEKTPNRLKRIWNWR
(§2) The fluorescent intensity measurement of the assay plate is read on a microplate reader once the assay is initiated and again at the completion of the assay. Phosphorylation of the CSox-based peptide substrate sensor results in an immediate increase in fluorescence. These raw fluorescence intensity values are normalized to calculate percent inhibition, which are fit to a four-parameter logistic curve and IC50 values are calculated. IC50 values are converted to Ki using substrate, KM^app values, and the Cheng-Prusoff equation.

Assay [1] concerns the target T2, CDK6/CyclinD3 (Homo sapiens, UniProt Q00534).
T2 construct: Wild-type, full length CDK6 in complex with wildtype, full length CyclinD3: Carna Cat #04-107; purchased Carna 04-107
Nature of the assay: CDK6/CyclinD3 ChEF Assay (AQT, Table C). Conditions: read-out: CDK6/CCND3 AQT Ki: Average Ki. As for the experimental part:
as §1, with “1.3×CDK6/CyclinD3” for “1.3×CDK4/CyclinD1”, “CDK6” for “CDK4”, “full length CyclinD3: Carna” for “CyclinD1: ThermoFisher”, “#04-107)” for “#PR8064A)”, “300” for “150”, “CDK6/D3” for “CDK4/D1”
as §2

For assay [2], the target named is T2, CDK6/CyclinD3. Nature of the assay: CDK6/Cyclin D3 Mobility Shift Assay (Caliper, Table B). Conditions: read-out: CDK6/CCND3 Caliper Ki: Average Ki. As for the experimental part: 10 nL of 2000× compound in 100% DMSO is added to a 384-well polypropylene assay plate. 15 μL of 1.3×CDK6/D3 and 1.3× fluorescent substrate (Wild-type, full length CDK6 in complex with wildtype, full length CyclinD3: Carna Cat #04-107 and FL-Peptide 34: PerkinElmer Cat #760643) diluted in kinase buffer (50 mM Hepes, 0.01% Brij-35, 10 mM MgCl2, 1 mM EGTA, 0.05% BSA, and 2 mM DTT) is added to the plates on top of the compound, mixed, and pre-incubated for 30 minutes at room temperature. The fluorescently labeled peptide substrate is phosphorylated by CDK6/D3 upon ATP hydrolysis. Following the incubation, 5 μL of 4×ATP diluted in kinase buffer is added to the plate to initiate the reaction. Following the 30-minute incubation, the reaction is stopped by adding 75 μL of stopping buffer containing 0.5 M EDTA.
The assay plate is then read on a Lab Chip EZ Reader which separates the fluorescently labeled substrate and product peptides through a mobility difference. The phosphorylation of the substrate imparts a negative charge, which allows differences in separation as both are pulled through the microfluidic chip. The ratio of substrate and product values are used to generate percent conversion. These raw percent conversion values are normalized to calculate percent inhibition, which are fit to a four-parameter logistic curve and IC50 values are calculated. IC50 values are converted to Ki through using substrate and Km^app values, and the Cheng-Prusoff equation.

T2 sequence (Q00534 whole entry): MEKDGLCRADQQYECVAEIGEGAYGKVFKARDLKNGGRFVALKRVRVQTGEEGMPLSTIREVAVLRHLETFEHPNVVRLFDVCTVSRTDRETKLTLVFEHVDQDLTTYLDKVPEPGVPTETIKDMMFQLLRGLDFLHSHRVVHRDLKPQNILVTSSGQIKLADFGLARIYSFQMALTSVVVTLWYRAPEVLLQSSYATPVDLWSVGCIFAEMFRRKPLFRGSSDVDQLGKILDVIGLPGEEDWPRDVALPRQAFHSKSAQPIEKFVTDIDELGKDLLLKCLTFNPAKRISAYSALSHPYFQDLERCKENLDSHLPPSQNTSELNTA
T2 sequence (P30281 whole entry partner): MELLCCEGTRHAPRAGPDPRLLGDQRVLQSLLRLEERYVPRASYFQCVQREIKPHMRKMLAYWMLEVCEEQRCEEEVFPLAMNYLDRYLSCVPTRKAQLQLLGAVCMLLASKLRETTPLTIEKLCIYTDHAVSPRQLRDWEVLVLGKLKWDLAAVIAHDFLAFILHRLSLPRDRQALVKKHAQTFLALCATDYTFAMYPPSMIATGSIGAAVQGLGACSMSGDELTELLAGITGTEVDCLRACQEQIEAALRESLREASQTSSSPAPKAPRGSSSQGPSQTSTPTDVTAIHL
T1 sequence (P11802 whole entry): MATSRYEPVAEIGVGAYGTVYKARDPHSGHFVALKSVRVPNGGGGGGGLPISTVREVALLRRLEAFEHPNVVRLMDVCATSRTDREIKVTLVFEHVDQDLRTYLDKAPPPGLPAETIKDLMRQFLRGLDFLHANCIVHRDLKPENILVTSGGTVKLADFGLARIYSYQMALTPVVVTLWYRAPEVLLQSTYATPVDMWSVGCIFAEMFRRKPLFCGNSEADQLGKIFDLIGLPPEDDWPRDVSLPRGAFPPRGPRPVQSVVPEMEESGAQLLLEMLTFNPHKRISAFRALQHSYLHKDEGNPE
T1 sequence (P24385 whole entry partner): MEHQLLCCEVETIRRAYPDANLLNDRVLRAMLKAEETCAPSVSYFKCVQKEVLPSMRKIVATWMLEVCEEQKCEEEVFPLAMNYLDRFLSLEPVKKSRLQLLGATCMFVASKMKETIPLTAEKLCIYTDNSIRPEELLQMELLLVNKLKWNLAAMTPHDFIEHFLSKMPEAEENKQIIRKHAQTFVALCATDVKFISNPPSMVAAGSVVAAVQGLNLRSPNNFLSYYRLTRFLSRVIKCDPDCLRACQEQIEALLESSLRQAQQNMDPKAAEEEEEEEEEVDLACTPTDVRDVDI

On to `NS(=O)(=O)c1ccc2cc1OCCCCCNC(=O)O[C@@H]1CC[C@@H](C1)c1cnc(nc1)N2` (stereo in doubt) [Compound 105, rel-(2S,5R)-7-oxo-6,14-dioxa-8,20,22,25-tetraazatetracyclo[19.2.2.1^{2,5}.1^{15,19}]heptacosa-1(23),15,17,19(26),21,24-hexaene-16-sulfonamide], for which the Ki on CDK4/CyclinD1 was at least 100 nM; on CDK9/CyclinT1 it was 25 to 100 nM; at CDK6/CyclinD3 [1], at least 100 nM. Consider `O=C1NCCCCCCNS(=O)(=O)c2ccc(c(F)c2)Nc2cc([nH]n2)[C@H]2CC[C@H](C2)O1` [Compound 91, (1^1S,1^3R,Z)-4^2-fluoro-2^1H-15-oxa-5-thia-3,6,13-triaza-2(5,3)-pyrazola-4(1,4)-benzena-1(1,3)-cyclopentanacyclopentadecaphan-14-one 5,5-dioxide], for which the Ki was at least 100 nM on CDK4/CyclinD1, 25 to 100 nM on CDK9/CyclinT1, at least 100 nM on CDK6/CyclinD3 [1] and at least 100 nM on CDK6/CyclinD3 [2]. For `O=C1NCCCCCCCNS(=O)(=O)c2ccc(c(F)c2)Nc2cc([nH]n2)[C@H]2CC[C@H](C2)O1` [Compound 92], the Ki on CDK6/CyclinD3 [2] lay in the range of 25 to 100 nM.

In turn, `O=C1NCCCCCCn2cc(cn2)S(=O)(=O)N2CCC(CC2)Nc2cc([nH]n2)[C@H]2CC[C@H](C2)O1` [Compound 97, (1^1S,1^3R,2^4Z,6^4E)-2^1H,6^1H-15-oxa-5-thia-3,13-diaza-4(4,1)-piperidina-2(5,3),6(4,1)-dipyrazola-1(1,3)-cyclopentanacyclopentadecaphan-14-one 5,5-dioxide] returned a Ki on CDK9/CyclinT1 of 25 to 100 nM. With `O=C1NCCCCNS(=O)(=O)c2ccc(c(F)c2)Nc2cc([nH]n2)[C@H]2CC[C@H](C2)O1` [Compound 99, (1^1S, 1^3R,Z)-4^2-fluoro-2^1H-13-oxa-5-thia-3,6,11-triaza-2(5,3)-pyrazola-4(1,4)-benzena-1(1,3)-cyclopentanacyclotridecaphan-12-one 5,5-dioxide], the Ki on CDK6/CyclinD3 [2] lay in the range of 25 to 100 nM. Consider `O=C1NCC=CCNS(=O)(=O)c2ccc(c(F)c2)Nc2cc([nH]n2)[C@H]2CC[C@H](C2)O1` [Compound 102, (1^1S,1^3R,2^4Z)-4^2-fluoro-2^1H-13-oxa-5-thia-3,6,11-triaza-2(5,3)-pyrazola-4(1,4)-benzena-1(1,3)-cyclopentanacyclotridecaphan-8-en-12-one 5,5-dioxide], for which the Ki on CDK6/CyclinD3 [2] is at least 100 nM.
